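How tested: cells in 96-well plates exposed to compound for 48 hours at five concentrations. GI50 = concentration required for 50% inhibition of growth. TGI: total growth inhibition.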
Tests used:
Assay in all cases: growth of human tumour cells (NCI), 48 h
PC-3 prostate = tested on: PC-3 prostate
SF-539 CNS = tested on: SF-539 CNS
HS 578T breast = tested on: HS 578T breast
NCI-H23 lung = tested on: NCI-H23 lung
SK-MEL-5 melanoma = tested on: SK-MEL-5 melanoma
SK-MEL-28 melanoma = tested on: SK-MEL-28 melanoma
NCI-H226 lung = tested on: NCI-H226 lung
HT29 colon = tested on: HT29 colon
COLO 205 colon = tested on: COLO 205 colon
786-0 renal = tested on: 786-0 renal
SK-MEL-2 melanoma = tested on: SK-MEL-2 melanoma
A498 renal = tested on: A498 renal
SN12C renal = tested on: SN12C renal
SK-OV-3 ovarian = tested on: SK-OV-3 ovarian
HL-60(TB) leukemia = tested on: HL-60(TB) leukemia
U251 CNS = tested on: U251 CNS
HOP-92 NSCLC = tested on: HOP-92 NSCLC
DU-145 prostate = tested on: DU-145 prostate
EKVX NSCLC = tested on: EKVX NSCLC
MOLT-4 leukemia = tested on: MOLT-4 leukemia
SNB-75 CNS = tested on: SNB-75 CNS
IGROV1 ovarian = tested on: IGROV1 ovarian
SNB-19 CNS = tested on: SNB-19 CNS
HOP-62 NSCLC = tested on: HOP-62 NSCLC
MCF7 breast = tested on: MCF7 breast
ACHN renal = tested on: ACHN renal
NCI-H460 lung = tested on: NCI-H460 lung
CCRF-CEM leukemia = tested on: CCRF-CEM leukemia
SF-268 CNS = tested on: SF-268 CNS
OVCAR-5 ovarian = tested on: OVCAR-5 ovarian
NCI-H522 lung = tested on: NCI-H522 lung
MDA-MB-231 breast = tested on: MDA-MB-231 breast
UO-31 renal = tested on: UO-31 renal
RPMI-8226 leukemia = tested on: RPMI-8226 leukemia
MDA-MB-435 = tested on: MDA-MB-435
KM12 colon = tested on: KM12 colon
UACC-62 melanoma = tested on: UACC-62 melanoma
SW-620 colon = tested on: SW-620 colon
RXF 393 renal = tested on: RXF 393 renal
LOX IMVI melanoma = tested on: LOX IMVI melanoma
NCI/ADR-RES ovarian = tested on: NCI/ADR-RES ovarian
BT-549 breast = tested on: BT-549 breast
OVCAR-4 ovarian = tested on: OVCAR-4 ovarian
HCT-15 colon = tested on: HCT-15 colon
HCT-116 colon = tested on: HCT-116 colon
SF-295 CNS = tested on: SF-295 CNS
OVCAR-8 ovarian = tested on: OVCAR-8 ovarian
T-47D breast = tested on: T-47D breast
HCC-2998 colon = tested on: HCC-2998 colon
UACC-257 melanoma = tested on: UACC-257 melanoma
SR leukemia = tested on: SR leukemia
MALME-3M melanoma = tested on: MALME-3M melanoma
M14 melanoma = tested on: M14 melanoma
A549 NSCLC = tested on: A549 NSCLC
OVCAR-3 ovarian = tested on: OVCAR-3 ovarian
TK-10 renal = tested on: TK-10 renal

## COc1ccc2c(c1)OC(N)=C(C#N)C2c1ccc(F)cc1 (configuration not stated)
PC-3 prostate
  GI50: 3.09 µM
  TGI: 99 µM
SF-539 CNS
  GI50: 1.64 µM
  TGI: 6.58 µM
HS 578T breast
  GI50: 3.84 µM
  TGI: > 100 µM
NCI-H23 lung
  GI50: 4.03 µM
  TGI: > 100 µM
SK-MEL-5 melanoma
  GI50: 2.49 µM
  TGI: 18.5 µM
SK-MEL-28 melanoma
  GI50: 15.2 µM
  TGI: > 100 µM
NCI-H226 lung
  GI50: 20.7 µM
  TGI: > 100 µM
HT29 colon
  GI50: 0.625 µM
  TGI: 13.5 µM
COLO 205 colon
  GI50: 1.74 µM
  TGI: 10.1 µM
786-0 renal
  GI50: 3.96 µM
  TGI: > 100 µM
SK-MEL-2 melanoma
  GI50: 0.633 µM
  TGI: > 100 µM
A498 renal
  GI50: 2.81 µM
  TGI: 63.4 µM
SN12C renal
  GI50: 6.82 µM
  TGI: > 100 µM
SK-OV-3 ovarian
  GI50: 2.94 µM
  TGI: 66.3 µM
HL-60(TB) leukemia
  GI50: 0.45 µM
  TGI: 7.15 µM
U251 CNS
  GI50: 3.08 µM
  TGI: > 100 µM
HOP-92 NSCLC
  GI50: 8.52 µM
  TGI: 75.5 µM
DU-145 prostate
  GI50: 3.05 µM
  TGI: > 100 µM
EKVX NSCLC
  GI50: 5.09 µM
  TGI: > 100 µM
MOLT-4 leukemia
  GI50: 1.32 µM
  TGI: > 100 µM
SNB-75 CNS
  GI50: 1.4 µM
  TGI: 13.3 µM
IGROV1 ovarian
  GI50: 2.38 µM
  TGI: > 100 µM
SNB-19 CNS
  GI50: 2.25 µM
  TGI: > 100 µM
HOP-62 NSCLC
  GI50: 0.986 µM
  TGI: > 100 µM
MCF7 breast
  GI50: 0.522 µM
  TGI: > 100 µM
ACHN renal
  GI50: 6.35 µM
  TGI: > 100 µM
NCI-H460 lung
  GI50: 2.05 µM
  TGI: > 100 µM
CCRF-CEM leukemia
  GI50: 2.31 µM
  TGI: > 100 µM
SF-268 CNS
  GI50: 7.38 µM
  TGI: > 100 µM
OVCAR-5 ovarian
  GI50: 14.5 µM
  TGI: > 100 µM
NCI-H522 lung
  GI50: 0.604 µM
  TGI: 27.1 µM
MDA-MB-231 breast
  GI50: 3.09 µM
  TGI: 97.5 µM
UO-31 renal
  GI50: 5.64 µM
  TGI: > 100 µM
RPMI-8226 leukemia
  GI50: 2.43 µM
  TGI: 19.9 µM
MDA-MB-435
  GI50: 0.22 µM
  TGI: 0.601 µM
KM12 colon
  GI50: 0.656 µM
  TGI: 25.8 µM
UACC-62 melanoma
  GI50: 0.571 µM
  TGI: > 100 µM
SW-620 colon
  GI50: 0.533 µM
  TGI: > 100 µM
RXF 393 renal
  GI50: 2.28 µM
  TGI: 17.8 µM
LOX IMVI melanoma
  GI50: 1.98 µM
  TGI: > 100 µM
NCI/ADR-RES ovarian
  GI50: 0.516 µM
  TGI: > 100 µM
BT-549 breast
  GI50: 1.63 µM
  TGI: 31.2 µM
OVCAR-4 ovarian
  GI50: 6.59 µM
  TGI: > 100 µM
HCT-15 colon
  GI50: 0.515 µM
  TGI: 51.6 µM
HCT-116 colon
  GI50: 1.09 µM
  TGI: 26 µM
SF-295 CNS
  GI50: 1.96 µM
  TGI: 37.2 µM
OVCAR-8 ovarian
  GI50: 4.49 µM
  TGI: > 100 µM
T-47D breast
  GI50: 3.78 µM
  TGI: > 100 µM
HCC-2998 colon
  GI50: 6.44 µM
  TGI: > 100 µM
UACC-257 melanoma
  GI50: 24.5 µM
  TGI: > 100 µM
SR leukemia
  GI50: 0.51 µM
  TGI: > 100 µM
MALME-3M melanoma
  GI50: 12.9 µM
  TGI: 77.9 µM
M14 melanoma
  GI50: 0.529 µM
  TGI: 44.2 µM
A549 NSCLC
  GI50: 4.94 µM
  TGI: > 100 µM
OVCAR-3 ovarian
  GI50: 0.829 µM
  TGI: 14.2 µM
TK-10 renal
  GI50: 5.83 µM
  TGI: > 100 µM
